Inconclusive results are not listed.

In this assay the test system is LMP1-induced NF-kappaB luciferase reporter cells, luminescence. Nature of the assay: inhibitors of LMP1-driven NF-kB reporter, dose response, cell-based, EBV LMP1, luciferase, dry powder, set 2 (AID 624361).
With `CC(C)(C)[S@](=O)N1Cc2cc(C(=O)NCC(F)(F)F)nc(-c3cccc(-c4cccc(F)c4)c3)c2[C@@H]1CCO`, the AC35 is 8.29 µM.

Regarding `COc1ccccc1C#Cc1ccc([C@H]2[C@H](C#N)N(C(=O)C3CC3)[C@H]2CO)cc1`, the AC35 was 20 µM.

Consider `Cc1ccc(S(=O)(=O)N(C)C[C@H]2Oc3cc(C#Cc4ccncc4)ccc3S(=O)(=O)N([C@@H](C)CO)C[C@H]2C)cc1`, for which the AC35 was 11.5 µM.

`Cc1noc(C)c1S(=O)(=O)Nc1ccc2c(c1)C(=O)N([C@H](C)CO)C[C@@H](C)[C@H](CN(C)Cc1ccc(C(F)(F)F)cc1)OCCCC[C@H](C)O2`: the AC35 was 31.2 µM.

Consider `Cc1noc(C)c1S(=O)(=O)Nc1ccc2c(c1)C(=O)N([C@@H](C)CO)C[C@H](C)[C@H](CN(C)Cc1ccc(C(F)(F)F)cc1)OCCCC[C@@H](C)O2`, for which the AC35 was 28.9 µM.

Consider `CC(C)(C)[S@@](=O)N1Cc2cc(C(=O)NCc3ccccc3F)nc(-c3cccc(-c4ccncc4)c3)c2[C@H]1CCO`, for which the AC35 was 35.5 µM.

For `C[C@H]1CN([C@@H](C)CO)C(=O)c2cc(C#Cc3ccccc3F)cnc2O[C@@H]1CN(C)C(=O)C1CCCCC1`, the AC35 was 24.6 µM.

Take `O=C(C[C@@H]1CC[C@@H]2[C@H](COC[C@H](O)CN2Cc2ccc3c(c2)OCO3)O1)Nc1ccc(-c2ccccc2)cc1`: the AC35 is 7.79 µM.

On to `COc1cccc(C#Cc2ccc([C@@H]3[C@H](C#N)N(C(=O)c4ccccn4)[C@H]3CO)cc2)c1`, for which the AC35 was 26.1 µM.

In the case of `Cc1noc(C)c1S(=O)(=O)Nc1ccc2c(c1)C(=O)N([C@@H](C)CO)C[C@@H](C)[C@@H](CN(C)Cc1ccc(C(F)(F)F)cc1)OCCCC[C@H](C)O2`, the AC35 was 32.8 µM.

As to `O=C(C[C@H]1C[C@H]2c3cc(NC(=O)c4ccc5c(c4)OCO5)ccc3O[C@H]2[C@H](CO)O1)NCc1ccc(Oc2ccccc2)cc1`, the AC35 was 20.7 µM.

On to `O=C(Nc1ccc(C(F)(F)F)cc1)Nc1ccc2c(c1)[C@H]1C[C@@H](CC(=O)N3CCc4ccccc4C3)O[C@@H](CO)[C@H]1O2`, for which the AC35 is 21.7 µM.

As for `C[C@@H]1CN([C@@H](C)CO)S(=O)(=O)c2ccc(C#Cc3ccncc3)cc2O[C@H]1CN(C)C(=O)Nc1ccc2c(c1)OCO2`, the AC35 was 24 µM.

On to `O=C(Nc1ccc(C(F)(F)F)cc1)Nc1ccc2c(c1)[C@H]1C[C@H](CC(=O)N3CCc4ccccc4C3)O[C@H](CO)[C@H]1O2`, for which the AC35 was 24.9 µM.

As to `O=C(C[C@@H]1CC[C@@H]2[C@H](COC[C@@H](O)CN2Cc2ccc3c(c2)OCO3)O1)Nc1ccc(-c2ccccc2)cc1`, the AC35 is 10 µM.

Regarding `C[C@H](CO)N1C[C@H](C)[C@@H](CN(C)S(=O)(=O)c2cccc(F)c2)Oc2ncc(C#CC3CCCCC3)cc2C1=O`, the AC35 was 35.3 µM.

Take `COc1cccc(S(=O)(=O)N(C)C[C@H]2Oc3cc(C4=CCCCC4)ccc3S(=O)(=O)N([C@H](C)CO)C[C@H]2C)c1`: the AC35 was 33 µM.

Take `O=C(C[C@@H]1C[C@H]2c3cc(NC(=O)c4ccc5c(c4)OCO5)ccc3O[C@H]2[C@H](CO)O1)NC1CCCCC1`: the AC35 was 24 µM.

For the compound `COc1ccc(-c2cccc(-c3nc(C(=O)NCC(F)(F)F)cc4c3[C@H](CCO)N([S@@](=O)C(C)(C)C)C4)c2)cc1`, the AC35 is 21.5 µM.

Consider `O=C(C[C@H]1C[C@@H]2c3cc(NC(=O)c4ccc5c(c4)OCO5)ccc3O[C@@H]2[C@@H](CO)O1)NCc1ccc(Oc2ccccc2)cc1`, for which the AC35 is 26.6 µM.

Consider `N#C[C@H]1[C@H](c2ccc(C#Cc3ccccc3F)cc2)[C@H](CO)N1C(=O)c1cccnc1`, for which the AC35 was 20.8 µM.

For the compound `COc1cccc(S(=O)(=O)N(C)C[C@@H]2Oc3cc(C4=CCCCC4)ccc3S(=O)(=O)N([C@H](C)CO)C[C@H]2C)c1`, the AC35 was 23.4 µM.

For the compound `CC(C)NC(=O)N1Cc2cc(C(=O)NC3Cc4ccccc4C3)nc(-c3cccc(-c4cccnc4)c3)c2[C@H]1CCO`, the AC35 is 28.2 µM.

For `CN1C(=O)c2cc(NC(=O)Cc3cccs3)ccc2OC[C@@H]2O[C@H](CC(=O)NCc3ccc(-c4ccccc4)cc3)CC[C@H]21`, the AC35 was 29.4 µM.

On to `COc1ccc(S(=O)(=O)N(C)C[C@H]2Oc3ncc(/C=C/c4ccccc4)cc3C(=O)N([C@H](C)CO)C[C@@H]2C)cc1`, for which the AC35 is 20.5 µM.

Source of the values: PubChem BioAssay AID624361 (Broad Institute, 2012).
